# From patent US20260355196A1, “INHIBITORS AND DEGRADERS OF PIP4K PROTEIN” (Larkspur Biosciences, Inc., priority 2023, published 2026)
# Biological target: T1, PIP4K2C (Homo sapiens, UniProt Q8TBX8)
# T1 sequence (Q8TBX8 1-421): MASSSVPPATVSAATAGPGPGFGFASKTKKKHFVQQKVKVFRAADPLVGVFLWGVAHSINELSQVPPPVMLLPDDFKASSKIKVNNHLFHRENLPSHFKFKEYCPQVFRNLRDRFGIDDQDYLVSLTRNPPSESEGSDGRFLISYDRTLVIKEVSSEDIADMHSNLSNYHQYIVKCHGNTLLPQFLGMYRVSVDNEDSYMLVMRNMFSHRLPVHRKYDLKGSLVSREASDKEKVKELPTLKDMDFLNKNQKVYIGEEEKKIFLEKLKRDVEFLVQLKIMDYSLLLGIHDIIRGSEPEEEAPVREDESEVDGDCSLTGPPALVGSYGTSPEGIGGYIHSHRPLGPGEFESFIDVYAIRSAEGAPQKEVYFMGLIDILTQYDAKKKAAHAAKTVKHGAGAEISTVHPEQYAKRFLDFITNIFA
# Test: HiBiT PIP4K2C degradation assay in MOLT-4 cells (endogenous PIP4K2C C-terminally tagged with HiBiT)
# Assay type: cell-based
# Parameters: untagged in primary human PBMCs and monocyte-derived dendritic cells
# Details: 6 hours of incubation time, rather than 24 hours; MOLT-4, top concentration 10 micromolar; read-out: HiBIT-degradation MOLT4 PIP4k2C DC50 (6 hours, marked *)
# Summary of the method: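 MOLT-4 knock-in line, HiBiT on PIP4K2C C-terminus; 22,500 cells/well; 10-pt 3-fold titration from 10 micromolar, n=2; 24 h or 6 h, 37 C, 5% CO2; Nano-Glo HiBiT lytic luminescence; DC50 via Hill equation.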
row,SMILES,DC50 [nM]
1,"O=C1CC[C@@H](Nc2ccc(N3CCN(CC4(O)CCN(C(=O)[C@H]5CC[C@H](Nc6ncc(F)c(-c7cccc(-n8ccccc8=O)c7)n6)CC5)CC4)CC3)c(F)c2)C(=O)N1 (single isomer, unassigned) [Compound 439]",< 500
2,"O=C1CC[C@H](Nc2ccc(N3CCN([C@H]4CC[C@H](NC(=O)[C@H]5CC[C@H](Nc6ncc(F)c(-c7cccc(-c8ccc[nH]c8=O)c7)n6)CC5)CC4)CC3)c(F)c2)C(=O)N1 (single isomer, unassigned) [Compound 441]",< 500
3,"O=C1CC[C@@H](Nc2ccc(C3CCN(CC4(O)CCN(C(=O)[C@H]5CC[C@H](Nc6ncc(F)c(-c7cccc(-n8ccccc8=O)c7)n6)CC5)CC4)CC3)c(F)c2)C(=O)N1 (single isomer, unassigned) [Compound 442]",< 500
4,"O=C1CC[C@H](Nc2ccc(C3CCN(CC4(O)CCN(C(=O)[C@H]5CC[C@H](Nc6ncc(F)c(-c7cccc(-n8ccccc8=O)c7)n6)CC5)CC4)CC3)c(F)c2)C(=O)N1 (single isomer, unassigned) [Compound 443]",< 500
5,"O=C1CC[C@@H](Nc2ccc(N3CCN([C@H]4CC[C@H](C(=O)N[C@H]5CC[C@H](Nc6ncc(F)c(-c7cccc(N8CCCCC8=O)c7)n6)CC5)CC4)CC3)c(F)c2)C(=O)N1 (single isomer, unassigned) [Compound 445]",< 500
6,"O=C1CC[C@@H](Nc2ccc(C3CCN(CC4CCN(C(=O)[C@H]5CC[C@H](Nc6ncc(F)c(-c7cccc(N8CCCCC8=O)c7)n6)CC5)CC4)CC3)c(F)c2)C(=O)N1 (single isomer, unassigned) [Compound 448]",< 500
7,"O=C1CC[C@H](Nc2ccc(C3CCN(CC4CCN(C(=O)[C@H]5CC[C@H](Nc6ncc(F)c(-c7cccc(N8CCCCC8=O)c7)n6)CC5)CC4)CC3)c(F)c2)C(=O)N1 (single isomer, unassigned) [Compound 449]",< 500
8,"O=C1CC[C@@H](Nc2ccc(C3CCN(CC4CCN(C(=O)[C@H]5CC[C@H](Nc6ncc(F)c(-c7cccc(-n8ccccc8=O)c7)n6)CC5)CC4)CC3)c(F)c2)C(=O)N1 (single isomer, unassigned) [Compound 455]",< 500
9,"O=C1CC[C@H](Nc2ccc(C3CCN(CC4CCN(C(=O)[C@H]5CC[C@H](Nc6ncc(F)c(-c7cccc(-n8ccccc8=O)c7)n6)CC5)CC4)CC3)c(F)c2)C(=O)N1 (single isomer, unassigned) [Compound 456]",< 500
10,"O=C1CC[C@H](Nc2ccc(N3CCN([C@H]4CC[C@H](C(=O)N[C@H]5CC[C@H](Nc6ncc(F)c(-c7cccc(N8CCCCC8=O)c7)n6)CC5)CC4)CC3)c(F)c2)C(=O)N1 (single isomer, unassigned) [Compound 458]",< 500
11,"O=C1CC[C@@H](Nc2ccc(N3CCN(C[C@H]4CC[C@H](CNC(=O)[C@H]5CC[C@H](Nc6ncc(F)c(-c7cccc(-n8ccccc8=O)c7)n6)CC5)CC4)CC3)c(F)c2)C(=O)N1 (single isomer, unassigned) [Compound 459]",< 500
12,"O=C1CC[C@H](Nc2ccc(N3CCN(C[C@H]4CC[C@H](CNC(=O)[C@H]5CC[C@H](Nc6ncc(F)c(-c7cccc(-n8ccccc8=O)c7)n6)CC5)CC4)CC3)c(F)c2)C(=O)N1 (single isomer, unassigned) [Compound 460]",< 500
13,"O=C1CC[C@@H](Nc2ccc(N3CCN([C@H]4CC[C@H](C(=O)N[C@H]5CC[C@H](Nc6ncc(F)c(-c7cccc(N8CCCOC8=O)c7)n6)CC5)CC4)CC3)c(F)c2)C(=O)N1 (single isomer, unassigned) [Compound 461]",< 500
14,"O=C1CC[C@H](Nc2ccc(N3CCN([C@H]4CC[C@H](C(=O)N[C@H]5CC[C@H](Nc6ncc(F)c(-c7cccc(N8CCCOC8=O)c7)n6)CC5)CC4)CC3)c(F)c2)C(=O)N1 (single isomer, unassigned) [Compound 462]",< 500
15,"O=C1CCC(Nc2ccc(C3CCN([C@H]4CC[C@H](C(=O)N[C@H]5CC[C@H](Nc6ncc(F)c(-c7cccc(N8CCCCC8=O)c7)n6)CC5)CC4)CC3)c(F)c2)C(=O)N1 (single isomer, unassigned) [Compound 592]",< 500
16,"O=C1CC[C@@H](Nc2ccc(C3CCN([C@H]4CC[C@H](C(=O)N[C@H]5CC[C@H](Nc6ncc(F)c(-c7cccc(N8CCCCC8=O)c7)n6)CC5)CC4)CC3)c(F)c2)C(=O)N1 (single isomer, unassigned) [Compound 593]",< 500
17,"O=C1CC[C@H](Nc2ccc(N3CCC(N4CCC(O)(C(=O)N[C@H]5CC[C@H](Nc6ncc(F)c(-c7cccc(-n8ccccc8=O)c7)n6)CC5)CC4)CC3)c(F)c2)C(=O)N1 (single isomer, unassigned) [Compound 594]",< 500
18,"O=C1CC[C@@H](Nc2ccc(N3CCC(N4CCC(O)(C(=O)N[C@H]5CC[C@H](Nc6ncc(F)c(-c7cccc(-n8ccccc8=O)c7)n6)CC5)CC4)CC3)c(F)c2)C(=O)N1 (single isomer, unassigned) [Compound 595]",< 500
19,"O=C1CC[C@H](Nc2ccc(C3CCN(CC4CCN(C(=O)[C@H]5CC[C@H](Nc6ncc(F)c(-c7cccc(N8CCCOC8=O)c7)n6)CC5)CC4)CC3)c(F)c2)C(=O)N1 (single isomer, unassigned) [Compound 600]",< 500
20,"O=C1CC[C@@H](Nc2ccc(C3CCN(CC4CCN(C(=O)[C@H]5CC[C@H](Nc6ncc(F)c(-c7cccc(N8CCCOC8=O)c7)n6)CC5)CC4)CC3)c(F)c2)C(=O)N1 (single isomer, unassigned) [Compound 601]",< 500
21,"O=C1CC[C@@H](Nc2ccc(N3CCN([C@H]4CC[C@H](C(=O)N[C@H]5CC[C@H](Nc6ncc(F)c(-c7cccc(-n8ccccc8=O)c7)n6)CC5)CC4)CC3)c(F)c2)C(=O)N1 (single isomer, unassigned) [Compound 602]",< 500

# Further lines, results first:
row,DC50 [nM],SMILES
1,< 500,"O=C1CCC(n2c(=O)oc3cc(N4CCC(CCN5CCN(C(=O)[C@@H]6CCC[C@H](Nc7ncc(F)c(-c8cccc(-n9ccccc9=O)c8)n7)C6)CC5)CC4)ccc32)C(=O)N1 (relative stereo) [Compound 386, 3-(6-(4-(2-(4-(cis-3-((5-fluoro-4-(3-(2-oxopyridin-1(2H)-yl)phenyl)pyrimidin-2-yl)amino)cyclohexane-1-carbonyl)piperazin-1-yl)ethyl)piperidin-1-yl)-2-oxobenzo[d]oxazol-3 (2H)-yl)piperidine-2,6-dione]"
2,< 500,"O=C1CC[C@@H](Nc2ccc(C3CCN([C@H]4CC[C@H](NC(=O)[C@H]5CC[C@H](Nc6ncc(F)c(-c7cccc(-n8ccccc8=O)c7)n6)CC5)CC4)CC3)c(F)c2)C(=O)N1 (single isomer, unassigned) [Compound 418]"
3,< 500,"O=C1CC[C@@H](Nc2ccc(C3CCN([C@H]4CC[C@H](NC(=O)[C@H]5CC[C@H](Nc6ncc(F)c(-c7cccc(-c8ccc[nH]c8=O)c7)n6)CC5)CC4)CC3)c(F)c2)C(=O)N1 (single isomer, unassigned) [Compound 419]"
4,< 500,"O=C1CC[C@@H](Nc2ccc(N3CCN([C@H]4CC[C@H](NC(=O)[C@H]5CC[C@H](Nc6ncc(F)c(-c7cccc(-n8ccccc8=O)c7)n6)CC5)CC4)CC3)c(F)c2)C(=O)N1 (single isomer, unassigned) [Compound 420]"
5,< 500,"O=C1CC[C@@H](Nc2ccc(C3CCN(CC4CCN(C(=O)[C@H]5CC[C@H](Nc6ncc(F)c(-c7cccc(-c8ccc[nH]c8=O)c7)n6)CC5)CC4)CC3)c(F)c2)C(=O)N1 (single isomer, unassigned) [Compound 421]"
6,< 500,"Cn1nc([C@H]2CCC(=O)NC2=O)c2ccc(C3CCN(CC4CCN(C(=O)[C@H]5CC[C@H](Nc6ncc(F)c(-c7cccc(-n8ccccc8=O)c7)n6)CC5)CC4)CC3)cc21 (single isomer, unassigned) [Compound 422]"
7,< 500,"O=C1CC[C@H](Nc2ccc(N3CCN(CC4(O)CCN(C(=O)[C@H]5CC[C@H](Nc6ncc(F)c(-c7cccc(-n8ccccc8=O)c7)n6)CC5)CC4)CC3)c(F)c2)C(=O)N1 (single isomer, unassigned) [Compound 423]"
8,< 500,"O=C1CC[C@@H](Nc2ccc(N3CCN([C@H]4CC[C@H](NC(=O)[C@H]5CC[C@H](Nc6ncc(F)c(-c7cccc(-c8ccc[nH]c8=O)c7)n6)CC5)CC4)CC3)c(F)c2)C(=O)N1 (single isomer, unassigned) [Compound 432]"
9,< 500,"O=C1CC[C@H](Nc2ccc(C3CCN([C@H]4CC[C@H](NC(=O)[C@H]5CC[C@H](Nc6ncc(F)c(-c7cccc(-n8ccccc8=O)c7)n6)CC5)CC4)CC3)c(F)c2)C(=O)N1 (single isomer, unassigned) [Compound 434]"
10,< 500,"O=C1CC[C@H](Nc2ccc(N3CCN([C@H]4CC[C@H](NC(=O)[C@H]5CC[C@H](Nc6ncc(F)c(-c7cccc(-n8ccccc8=O)c7)n6)CC5)CC4)CC3)c(F)c2)C(=O)N1 (single isomer, unassigned) [Compound 436]"
11,< 500,"O=C1CC[C@H](Nc2ccc(C3CCN(CC4CCN(C(=O)[C@H]5CC[C@H](Nc6ncc(F)c(-c7cccc(-c8ccc[nH]c8=O)c7)n6)CC5)CC4)CC3)c(F)c2)C(=O)N1 (single isomer, unassigned) [Compound 437]"
12,< 500,"Cn1nc([C@@H]2CCC(=O)NC2=O)c2ccc(C3CCN(CC4CCN(C(=O)[C@H]5CC[C@H](Nc6ncc(F)c(-c7cccc(-n8ccccc8=O)c7)n6)CC5)CC4)CC3)cc21 (single isomer, unassigned) [Compound 438]"
